Earlier results on three compounds are cited in PubChem BioAssay AID1259409 (Chemical Carcinogenesis Research Information System (CCRIS), 2018).

Structures are written as SMILES.

The test system of this data set is rodent chemically induced tumor inhibition, incidence and multiplicity. The data set is described as follows: CCRIS tumor inhibitor studies. Conditions: Route [Inhibitor]: ORAL, Promoter: NONE USED.

As to `Cc1ccc2oc(=O)ccc2c1`, the “tumour outcome (control, treated, inhibition, significance)” value (Carcinogen: BENZO[A]PYRENE, 50-32-8, Dose [Inhibitor]: 0.034 MMOL/G IN DIET FOR 5 WK BEGINNING 1 WK PRIOR TO FIRST CARCINOGEN DOSE AND CONTINUING FOR 3 D POST LAST CARCINOGEN, Species: MOUSE, Strain/Sex: ICR/FEMALE, Target Tissue: Type of Lesion: FORESTOMACH: TUMOR, Dose [Carcinogen]: 1 MG IN 0.2 ML CORN OIL 2/WK FOR 4 WK) is recorded as 90%, 90%, 0%, not significant.

As for `O=c1[nH]cnc2[nH]ncc12`, under “Carcinogen: N-BUTYL-N-(4-HYDROXYBUTYL)NITROSAMINE, 3817-11-6, Dose [Inhibitor]: 0.02% DIET DAILY FOR 34 WK STARTING AFTER CARCINOGEN TREATMENT (STUDY DURATION: 38 WK), Species: RAT, Strain/Sex: F344/MALE, Target Tissue: Type of Lesion: URINARY BLADDER: PAPILLOMA, Dose [Carcinogen]: 0.01% IN DRINKING WATER FOR 4 WK”, the “tumour outcome (control, treated, inhibition, significance)” value is 33%, 43%, -30%, not significant.

Consider `CC(C)(C)c1cc(Cc2cc(C(C)(C)C)c(O)c(C(C)(C)C)c2)cc(C(C)(C)C)c1O`, for which the “tumour outcome (control, treated, inhibition, significance)” value (Carcinogen: BENZO[A]PYRENE, 50-32-8, Dose [Inhibitor]: 0.03 MMOL/G OF DIET DAILY STARTING 7 D BEFORE AND CONTINUING THROUGH 3 D AFTER CARCINOGEN TREATMENT FOLLOWED BY OBSERVAT, Species: MOUSE, Strain/Sex: ICR/FEMALE, Target Tissue: Type of Lesion: FORESTOMACH: NEOPLASM, Dose [Carcinogen]: 1 MG IN 0.2 ML CORN OIL 2/WK FOR 4 WK) is given as 94%, 100%, -6%, not significant.
